Measured values from article PMC3914206.

Experiments:
Format in all cases: binding
panel of 442 kinases [1] = target: T1, panel of 442 kinases (Homo sapiens, UniProt P54753); conditions: Compound Concentration 10 µM
T1 construct: purchased KINOMEscan
T1 sequence (P54753 34-998): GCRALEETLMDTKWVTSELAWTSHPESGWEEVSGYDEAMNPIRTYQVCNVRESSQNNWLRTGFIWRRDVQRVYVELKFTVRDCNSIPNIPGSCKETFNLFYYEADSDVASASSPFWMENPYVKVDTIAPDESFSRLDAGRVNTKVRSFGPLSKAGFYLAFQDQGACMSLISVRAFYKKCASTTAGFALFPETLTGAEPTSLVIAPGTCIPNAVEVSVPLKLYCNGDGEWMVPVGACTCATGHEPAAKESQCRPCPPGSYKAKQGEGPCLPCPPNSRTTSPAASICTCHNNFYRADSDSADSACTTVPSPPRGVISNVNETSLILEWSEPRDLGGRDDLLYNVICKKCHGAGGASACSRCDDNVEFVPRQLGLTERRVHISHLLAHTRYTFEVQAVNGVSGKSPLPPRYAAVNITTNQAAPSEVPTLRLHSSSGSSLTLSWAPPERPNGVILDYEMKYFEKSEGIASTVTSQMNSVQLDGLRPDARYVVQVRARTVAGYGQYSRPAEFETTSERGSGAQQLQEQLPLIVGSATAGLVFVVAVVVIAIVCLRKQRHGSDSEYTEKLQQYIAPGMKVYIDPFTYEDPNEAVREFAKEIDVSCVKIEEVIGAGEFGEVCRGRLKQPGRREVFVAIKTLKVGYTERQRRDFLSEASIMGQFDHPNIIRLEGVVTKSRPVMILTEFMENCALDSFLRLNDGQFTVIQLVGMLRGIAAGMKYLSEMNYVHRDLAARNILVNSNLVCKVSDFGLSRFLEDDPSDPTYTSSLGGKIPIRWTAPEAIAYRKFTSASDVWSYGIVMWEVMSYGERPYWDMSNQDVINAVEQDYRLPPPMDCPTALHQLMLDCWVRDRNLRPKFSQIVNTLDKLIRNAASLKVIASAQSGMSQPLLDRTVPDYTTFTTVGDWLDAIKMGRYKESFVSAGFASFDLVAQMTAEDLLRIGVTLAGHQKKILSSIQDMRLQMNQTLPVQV
Text: (§1) We assessed the selectivity of members of this scaffold using the KINOMEscan methodology across a near comprehensive panel of 442 kinases [[18,27]].

panel of 442 kinases [2] = target: T2, panel of 442 kinases (Homo sapiens, UniProt P12931); conditions: kinase SRC; compound concentration 10 µM
T2 construct: purchased KINOMEscan
T2 sequence (P12931 whole entry): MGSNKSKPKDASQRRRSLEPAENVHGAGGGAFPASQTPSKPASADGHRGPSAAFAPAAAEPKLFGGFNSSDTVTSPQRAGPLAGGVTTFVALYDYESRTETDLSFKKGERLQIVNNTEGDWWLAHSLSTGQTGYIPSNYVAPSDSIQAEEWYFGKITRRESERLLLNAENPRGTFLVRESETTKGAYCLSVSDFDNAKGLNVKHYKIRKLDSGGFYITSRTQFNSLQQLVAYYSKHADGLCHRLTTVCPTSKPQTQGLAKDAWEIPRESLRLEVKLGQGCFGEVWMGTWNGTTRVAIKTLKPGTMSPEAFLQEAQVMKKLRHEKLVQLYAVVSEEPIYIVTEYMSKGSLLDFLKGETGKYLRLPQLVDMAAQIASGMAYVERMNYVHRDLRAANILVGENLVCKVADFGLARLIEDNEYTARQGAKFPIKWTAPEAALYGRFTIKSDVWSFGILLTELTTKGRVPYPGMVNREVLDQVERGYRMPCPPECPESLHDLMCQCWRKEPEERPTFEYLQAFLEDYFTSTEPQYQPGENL
Text: as §1

panel of 442 kinases [3] = target: T3, panel of 442 kinases (Homo sapiens, UniProt P04049); conditions: Compound Concentration 10 µM
T3 construct: purchased KINOMEscan
T3 sequence (P04049 whole entry): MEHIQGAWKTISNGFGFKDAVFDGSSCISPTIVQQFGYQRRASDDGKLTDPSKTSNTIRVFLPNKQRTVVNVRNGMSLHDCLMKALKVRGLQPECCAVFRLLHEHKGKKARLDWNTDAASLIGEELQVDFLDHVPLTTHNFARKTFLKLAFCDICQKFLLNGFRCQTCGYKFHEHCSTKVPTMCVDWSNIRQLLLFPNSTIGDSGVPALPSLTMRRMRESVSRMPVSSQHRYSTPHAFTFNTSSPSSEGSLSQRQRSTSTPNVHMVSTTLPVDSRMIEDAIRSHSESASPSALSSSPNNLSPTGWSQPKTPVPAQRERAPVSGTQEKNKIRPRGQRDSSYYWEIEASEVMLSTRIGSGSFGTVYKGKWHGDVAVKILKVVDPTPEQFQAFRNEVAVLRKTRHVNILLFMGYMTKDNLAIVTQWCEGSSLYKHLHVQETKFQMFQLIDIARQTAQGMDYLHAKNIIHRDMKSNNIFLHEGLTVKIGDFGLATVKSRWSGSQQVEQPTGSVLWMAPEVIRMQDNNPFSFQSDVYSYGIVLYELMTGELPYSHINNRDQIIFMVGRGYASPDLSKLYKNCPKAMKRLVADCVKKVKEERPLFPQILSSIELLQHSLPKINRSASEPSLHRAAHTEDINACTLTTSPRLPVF
Text: as §1

Structure (SMILES): COc1cc(C(=O)N2CCC(N3CCN(C)CC3)CC2)ccc1Nc1ncc2c(n1)N(C1CCCC1)c1ccccc1C(=O)N2C [Compound 25, 11-cyclopentyl-2-((2-methoxy-4-(4-(4-methylpiperazin-1-yl)piperidine-1-carbonyl)phenyl)amino)-5-methyl-5H-benzo[e]pyrimido[5,4-b][1,4]diazepin-6(11H)-one]
- KINOMEscan: EPHB3 (panel of 442 kinases [1]): 96
- % Ctrl, SRC (panel of 442 kinases [2]): 90 % Ctrl
- KINOMEscan: RAF1 (panel of 442 kinases [3]): 100

Structure (SMILES): CCOc1cc(C(=O)N2CCC(N3CCN(C)CC3)CC2)ccc1Nc1ncc2c(n1)N(C1CCCC1)c1ccccc1C(=O)N2C [Compound 26]
- KINOMEscan: EPHB3 (panel of 442 kinases [1]): 100
- % Ctrl, SRC (panel of 442 kinases [2]): 100 % Ctrl
- KINOMEscan: RAF1 (panel of 442 kinases [3]): 100

Structure (SMILES): COc1cc(C(=O)N2CCC(N3CCN(C)CC3)CC2)ccc1Nc1ncc2c(n1)N1CCc3cccc(c31)C(=O)N2C [Compound 24]
- % Ctrl, SRC (panel of 442 kinases [2]): 95 % Ctrl

Structure (SMILES): COc1cc(C(=O)N2CCC(N3CCN(C)CC3)CC2)ccc1Nc1ncc2c(n1)N(C)c1ccccc1C(=O)N2C [15 (LRRK2-IN-1)]
- KINOMEscan: EPHB3 (panel of 442 kinases [1]): 100
- % Ctrl, SRC (panel of 442 kinases [2]): 100 % Ctrl
- KINOMEscan: RAF1 (panel of 442 kinases [3]): 100
